Tests used:
15-PGDH = 15-PGDH (Homo sapiens (Human), UniProt P15428); assay: Inhibition test of compounds on 15-PGDH enzyme; assay type: biochemical
Description: 15-PGDH (R&D Systems, Cat. No.: 5660-DH-010) was prepared to twice the final concentration, i.e., 30 nM, using Assay Buffer (50 mM Tris-HCl, pH 7.5, 0.01vol % Tween 20). The obtained mixture was then added to a 384-well white plate (Cisbio Bioassays, Cat. No. 66PL384025) at 8 μL/well. Negative control wells (with Assay Buffer only and without enzyme) were set. The compound was then prepared to 4 times the final concentration using Assay Buffer, i.e., diluted 3-fold to 10 concentrations starting from 4000 nM. The obtained mixture was added to the above white plate at 4 μL/well, mixed well, centrifuged at 1000 rpm for 1 minute, and incubated at 25° C. for 10 minutes. Both positive control wells (with 15-PGDH only) and negative control wells (without 15-PGDH) were set. A mixture of NAD^+(Select, Cat. No. S2518) and PGE2 (R&D Systems, Cat. No.: 2296/10) was then prepared using Assay Buffer. NAD^+ and PGE2 were prepared to four times their final concentrations, i.e., 2 mM and 0.12 mM, respectively, using Assay Buffer. The obtained mixture was then added to the above white plate at 4 μL/well, mixed well, centrifuged at 1000 rpm for 1 minute, and incubated at 25° C. for 30 minutes for the reaction. The fluorescence was detected at an excitation wavelength of 340 nm and an emission wavelength of 485 nm using instrument TECAN SPARK 20M. The IC50 value was calculated using four-parameter fitting with GraphPad Prism 8.0.

A549 cells = assay: Effect of compounds on PGE2 levels in A549 cell supernatant; assay type: cell-based; details: 20 nM compound, about 12 hours, after IL-10 stimulation; ELISA
Description: A549 cells (Procell, Wuhan) were cultured in F12K+10% FBS. The cells with good status in log phase were selected for the experiment, digested, counted, and inoculated into a 24-well plate at 8000 cells per well. The cells were cultured in a 37° C., 5% CO2 incubator overnight. After adherence, the cells were transferred to a culture medium containing 0.5% FBS and cultured for about 10 hours. IL-10 was added to each well (final concentration of 20 ng/mL, 1 mL per well), and a control group (without IL-10) was set up. After stimulation with IL-10 for about 24 hours, the cell culture medium of each well was aspirated and discarded, and the wells were gently washed with fresh culture medium containing 0.5% FBS. 400 μL of culture medium containing the compound of different concentrations (20 nM and 2500 nM) was added to each well and cultured for about 12 hours. The supernatant was collected and PGE2 was detected using ELISA kit (R&D Systems, Cat. No.: KGE004B).

Pharmacokinetics in mice = assay type: in vivo; details: mouse, po; male CD-1 mice, 10 mg/kg, gavage, plasma
Description: The pharmacokinetic properties of the compounds of the present disclosure in mice were determined with reference to the following experimental methods.
Three male CD-1 mice were used, administered at a dose of 10 mg/kg, the route of administration was by gavage, and the vehicle was 5% DMSO+10% Solutol+85% Saline. The mice were fasted overnight, and the time points of blood collection were before administration and at 15 minutes, 30 minutes, 1 hour, 2 hours, 4 hours, 8 hours, and 24 hours after administration. Blood samples were centrifuged at 6800 g for 6 minutes at 2 to 8° C., and plasma was collected and stored at −80° C. 10 μL of plasma at each time point was taken, and added with 200 μL of methanol containing 100 ng/mL internal standard. The mixture was vortexed, mixed evenly, and then centrifuged at 18000 g for 7 minutes at 2 to 8° C. 200 μL of the mixture was transferred to a 96-well injection plate for LC-MS/MS quantitative analysis. The main pharmacokinetic parameters were analyzed using WinNonlin 7.0 software with non-compartmental model.

IBD in mice = assay: Efficacy on IBD in mice; assay type: in vivo, mouse; details: for DAI / body weight / inflammatory cell infiltration score of colon tissues / tissue injury score of colon tissues: vs G2 model group; for Colon weight CW (g): day 0 to day 9, DSS mice
Description: The mice in G2 to G6 were given 2% DSS aqueous solution on day 0 to day 6, normal water on […], vehicle/positive/test substance on day 0 to day 9, and euthanized on day 10 for necropsy. Colon weight (CW) and colon length (CL) were measured and colon tissues […] were subjected to histopathological examination.

15-PGDH, sequence (P15428 whole entry): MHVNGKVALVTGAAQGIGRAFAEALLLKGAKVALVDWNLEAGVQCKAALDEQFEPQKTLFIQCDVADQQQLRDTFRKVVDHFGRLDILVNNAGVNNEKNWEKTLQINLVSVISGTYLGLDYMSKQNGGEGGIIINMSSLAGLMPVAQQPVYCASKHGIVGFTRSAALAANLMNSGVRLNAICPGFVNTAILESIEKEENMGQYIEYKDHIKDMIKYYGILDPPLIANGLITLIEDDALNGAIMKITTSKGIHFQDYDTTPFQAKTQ

Structure (SMILES): Cn1ccc2cc(N3CC4CC4c4cc(C(=O)N5CCC(F)(F)CC5)cnc43)ccc2c1=O (centres unmarked) [Compound I-12, 6-(6-(4,4-difluoropiperidine-1-carbonyl)-1,1a,2,7b-tetrahydro-3H-cyclopropa[c][1,8]naphthyridin-3-yl)-2-methylisoquinolin-1(2H)-one]
- IC50 (15-PGDH): 2.1 nM
- Fold increase of PGE2 in A549 cell supernatant (A549 cells): 5.44
- AUC(0-t) (Pharmacokinetics in mice): 107000 ng·h/mL
- Cmax (Pharmacokinetics in mice): 14800 ng/mL

Structure (SMILES): Cn1cnc2cc(N3CC4CC4c4cc(C(=O)N5CCC(F)(F)CC5)ccc43)cnc2c1=O (centres unmarked) [Compound I-15, 7-(6-(4,4-difluoropiperidine-1-carbonyl)-1,1a,2,7b-tetrahydro-3H-cyclopropa[c]quinolin-3-yl)-3-methylpyrido[3,2-d]pyrimidin-4(3H)-one]
- IC50 (15-PGDH): 5.7 nM
- Fold increase of PGE2 in A549 cell supernatant (A549 cells): 3.7

Structure (SMILES): Cn1nc2cc(N3CC4CC4c4cc(C(=O)N5CCCC(F)C5)cnc43)ccn2c1=O (centres unmarked) [Compound I-27, 7-(6-(3-fluoropiperidine-1-carbonyl)-1,1a,2,7b-tetrahydro-3H-cyclopropa[c][1,8]naphthyridin-3-yl)-2-methyl-[1,2,4]triazolo[4,3-a]pyridin-3(2H)-one]
- IC50 (15-PGDH): 5.7 nM
- Fold increase of PGE2 in A549 cell supernatant (A549 cells): 2.60

Structure (SMILES): N#Cc1ccc(N2CC3CC3c3cc(C(=O)N4CCC(F)(F)CC4)cnc32)cc1 (centres unmarked) [Compound I-11, 4-(6-(4,4-difluoropiperidine-1-carbonyl)-1,1a,2,7b-tetrahydro-3H-cyclopropa[c][1,8]naphthyridin-3-yl)benzonitrile]
- IC50 (15-PGDH): 3.8 nM
- Fold increase of PGE2 in A549 cell supernatant (A549 cells): 1.88

Structure (SMILES): Cn1ncc2cc(N3CC4CC4c4cc(C(=O)N5CCC(F)(F)CC5)ccc43)cnc2c1=O (centres unmarked) [Compound I-14, 3-(6-(4,4-difluoropiperidine-1-carbonyl)-1,1a,2,7b-tetrahydro-3H-cyclopropa[c]quinolin-3-yl)-7-methylpyrido[2,3-d]pyridazin-8(7H)-one]
- IC50 (15-PGDH): 8.6 nM
- Fold increase of PGE2 in A549 cell supernatant (A549 cells): 2.3

Structure (SMILES): Cn1nc2cc(N3CC4CC4c4cc(C(=O)N5CCC(F)(F)CC5)cnc43)ccn2c1=O (single isomer, unassigned) [Compound I-3B]
- DAI (IBD in mice; G4, 2.5 mg/kg bid): significant decrease
- body weight (IBD in mice; G4, 2.5 mg/kg bid): increase
- inflammatory cell infiltration score of colon tissues (IBD in mice; G4, 2.5 mg/kg bid): significant decrease
- tissue injury score of colon tissues (IBD in mice; G4, 2.5 mg/kg bid): significant decrease
- Colon weight CW (g) (IBD in mice; G4 low-dose, 2.5 mg/kg bid): significant decrease
- DAI (IBD in mice; G5, 5 mg/kg bid): significant decrease
- body weight (IBD in mice; G5, 5 mg/kg bid): significant increase
- inflammatory cell infiltration score of colon tissues (IBD in mice; G5, 5 mg/kg bid): significant decrease
- tissue injury score of colon tissues (IBD in mice; G5, 5 mg/kg bid): significant decrease
- Colon weight CW (g) (IBD in mice; G5 high-dose, 5 mg/kg bid): significant decrease

Structure (SMILES): Cn1nc2cc(N3CC4CC4c4cc(C(=O)N5CCC6(CC5)CC6)cnc43)ccn2c1=O (centres unmarked) [Compound I-28, 7-(6-(6-azaspiro[2.5]octane-6-carbonyl)-1,1a,2,7b-tetrahydro-3H-cyclopropa[c][1,8]naphthyridin-3-yl)-2-methyl-[1,2,4]triazolo[4,3-a]pyridin-3(2H)-one]
- IC50 (15-PGDH): 1.71 nM
- Fold increase of PGE2 in A549 cell supernatant (A549 cells): 4.05
- AUC(0-t) (Pharmacokinetics in mice): 10700 ng·h/mL
- Cmax (Pharmacokinetics in mice): 5040 ng/mL

From patent US20250034134A1, “15-PGDH INHIBITOR AND USE THEREOF” (Wuhan Humanwell Innovative Drug Research and Development …, priority 2021, published 2025)
